Measured values from the NIST ThermoML archive (doi:10.1016/j.jct.2014.01.020).

Test: molar heat capacity at constant pressure; xn = mol fraction of the nth substance listed
Conditions: Liquid, Flow calorimetry

C1CCCCC1 [cyclohexane] + CCCCO
molar heat capacity at constant pressure [J/K/mol]
Conditions	x2 = 0	x2 = 0.1013	x2 = 0.2003	x2 = 0.3002	x2 = 0.4013	x2 = 0.4997	x2 = 0.6002	x2 = 0.6999	x2 = 0.7998	x2 = 0.8999
293.15 K, 100 kPa	154.7	164.6	166.7	168.6	170.9	171.2	171.4	172.1	172.2	172.8
293.15 K, 5000 kPa	153.8	163.3	165.3	167.1	169.5	169.7	170.2	170.6	171	171.9
293.15 K, 10000 kPa	152.5	161.2	163.5	165.4	167.7	168.2	168.6	169.4	169.5	170.4
293.15 K, 15000 kPa	150.5	159.1	161	163.4	165.5	165.9	166.3	168	168.3	169.1
293.15 K, 20000 kPa	149.7	157.5	159.3	161.7	164.4	164.9	164.8	167.1	167.1	167.7
293.15 K, 25000 kPa	147.7	155.9	157.8	160.3	162.8	163.1	163.4	165.6	166	166.6
313.15 K, 100 kPa	–	179.7	182.8	185.3	187.8	188.1	189.4	191.3	191.4	191.1
313.15 K, 5000 kPa	–	177.4	180.4	183.2	186.1	186.5	187.4	189.1	189.9	189.3
313.15 K, 10000 kPa	–	175.2	178.8	181.1	183.7	184.5	185.4	187.4	188.9	187.3
313.15 K, 15000 kPa	–	172.9	175.8	178.9	181.6	182.7	183.8	185.5	187.2	186.5
313.15 K, 20000 kPa	–	170.5	173.8	177	180.4	180.7	181.4	184.3	185.4	184.6
313.15 K, 25000 kPa	154.6	168.7	171.6	175	177.8	179.3	179.7	182.3	183.9	183.1
